Assays:
Human Calpain 2/NS1 = target: T1, Human Calpain 2/NS1 (Homo sapiens, UniProt P17655); experiment: Biochemical inhibition of calpain 2, continuous fluorescence (FRET substrate) assay; details: mean, read-out: Human Calpain 2/NS1 IC50 (nM)_MEAN
T1 sequence (P17655 1-700): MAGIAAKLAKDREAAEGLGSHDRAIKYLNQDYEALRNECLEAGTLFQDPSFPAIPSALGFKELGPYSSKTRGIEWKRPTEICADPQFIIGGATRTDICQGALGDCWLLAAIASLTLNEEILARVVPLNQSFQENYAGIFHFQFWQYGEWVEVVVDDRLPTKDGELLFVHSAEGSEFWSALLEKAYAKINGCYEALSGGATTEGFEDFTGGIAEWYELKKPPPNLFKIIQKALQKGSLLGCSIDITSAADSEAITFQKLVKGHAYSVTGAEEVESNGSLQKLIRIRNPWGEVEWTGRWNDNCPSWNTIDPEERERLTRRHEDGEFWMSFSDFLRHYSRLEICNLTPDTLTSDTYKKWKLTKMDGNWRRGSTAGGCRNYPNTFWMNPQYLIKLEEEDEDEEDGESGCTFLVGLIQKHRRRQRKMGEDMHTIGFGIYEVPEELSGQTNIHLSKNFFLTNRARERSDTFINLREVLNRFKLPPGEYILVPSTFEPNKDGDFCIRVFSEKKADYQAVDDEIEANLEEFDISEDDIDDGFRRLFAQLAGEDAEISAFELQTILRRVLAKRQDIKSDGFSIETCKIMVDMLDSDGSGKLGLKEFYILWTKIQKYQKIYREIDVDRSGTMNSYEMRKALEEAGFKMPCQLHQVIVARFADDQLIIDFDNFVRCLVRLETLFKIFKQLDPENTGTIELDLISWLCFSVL
T1 sequence (P04632 1-268 partner): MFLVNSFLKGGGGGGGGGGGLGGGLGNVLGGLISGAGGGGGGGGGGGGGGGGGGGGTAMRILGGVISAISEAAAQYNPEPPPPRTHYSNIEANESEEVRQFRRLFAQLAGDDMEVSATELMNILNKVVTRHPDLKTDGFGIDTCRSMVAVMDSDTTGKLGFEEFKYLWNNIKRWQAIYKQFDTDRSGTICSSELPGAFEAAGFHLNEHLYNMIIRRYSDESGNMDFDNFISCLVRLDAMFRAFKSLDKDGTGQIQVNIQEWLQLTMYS
Procedure: (§1) Calpain 1, 2, and 9 activity and inhibition thereof are assessed by means of a continuous fluorescence assay. The SensoLyte 520 Calpain substrate (Anaspec Inc) is optimized for detecting calpain activity. This substrate contains a novel internally quenched 5-FAM/QXL™ 520 FRET pair. Calpains 1, 2, and 9 cleave the FRET substrate into two separate fragments resulting in an increase of 5-FAM fluorescence that is proportional to calpain activity.
(§2) Assays are typically setup in black 384-well plates using automated liquid handling as follows. Calpain assay base buffer typically contains 50 mM Tris, pH˜7.5, 100 mM NaCl and 1 mM DTT. Inhibitors are serially diluted in DMSO and used to setup 2× mixtures with calpains in the aforementioned buffer. After incubation at ambient temperature (25C), the reaction is initiated by adding a 2× mix of the fluorescent peptide substrate and CaCl2) (required for in-situ calpain activation) in the same buffer. Reaction progress curve data are typically collected for 10 min using excitation/emission wavelengths of 490 nm/520 nm on SpectraMax i3× or the FLIPR-Tetra plate readers (Molecular Devices Inc). Reaction rates were calculated from progress curve slopes typically over 1-5 min. Dose response curves (rate vs. log inhibitor concentration) were typically fit to a 4-parameter logistic function to extract IC50 values.

Human Calpain 9/NS1 = target: T2, Human Calpain 9/NS1 (Homo sapiens, UniProt O14815); experiment: Biochemical inhibition of calpain 9, continuous fluorescence (FRET substrate) assay; details: mean, read-out: Human Calpain 9/NS1 IC50 (nM)_MEAN
T2 sequence (O14815 1-690): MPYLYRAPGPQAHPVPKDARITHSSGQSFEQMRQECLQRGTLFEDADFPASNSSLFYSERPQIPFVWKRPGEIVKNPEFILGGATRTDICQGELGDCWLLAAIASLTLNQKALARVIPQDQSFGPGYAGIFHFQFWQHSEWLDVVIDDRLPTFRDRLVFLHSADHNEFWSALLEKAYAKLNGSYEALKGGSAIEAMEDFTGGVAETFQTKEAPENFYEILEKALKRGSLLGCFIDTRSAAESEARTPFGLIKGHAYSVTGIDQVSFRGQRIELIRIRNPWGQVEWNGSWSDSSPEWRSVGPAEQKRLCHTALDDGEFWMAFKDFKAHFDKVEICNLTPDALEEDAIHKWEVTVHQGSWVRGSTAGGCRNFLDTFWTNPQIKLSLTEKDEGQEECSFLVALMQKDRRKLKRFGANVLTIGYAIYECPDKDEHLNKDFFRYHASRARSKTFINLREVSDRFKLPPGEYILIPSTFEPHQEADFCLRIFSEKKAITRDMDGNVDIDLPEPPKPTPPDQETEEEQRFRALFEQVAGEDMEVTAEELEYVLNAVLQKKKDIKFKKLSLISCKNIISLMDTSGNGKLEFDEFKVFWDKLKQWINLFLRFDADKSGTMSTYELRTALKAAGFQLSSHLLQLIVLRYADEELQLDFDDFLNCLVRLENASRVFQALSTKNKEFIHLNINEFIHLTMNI
T2 sequence (P04632 1-268 partner): T1 sequence (P04632 1-268 partner)
Procedure: as §1, §2

Human Calpain 1/NS1 = target: T3, Human Calpain 1/NS1 (Homo sapiens, UniProt P07384); experiment: Biochemical inhibition of calpain 1, continuous fluorescence (FRET substrate) assay; details: mean, read-out: Human Calpain 1/NS1 IC50 (nM)_MEAN
T3 sequence (P07384 1-714): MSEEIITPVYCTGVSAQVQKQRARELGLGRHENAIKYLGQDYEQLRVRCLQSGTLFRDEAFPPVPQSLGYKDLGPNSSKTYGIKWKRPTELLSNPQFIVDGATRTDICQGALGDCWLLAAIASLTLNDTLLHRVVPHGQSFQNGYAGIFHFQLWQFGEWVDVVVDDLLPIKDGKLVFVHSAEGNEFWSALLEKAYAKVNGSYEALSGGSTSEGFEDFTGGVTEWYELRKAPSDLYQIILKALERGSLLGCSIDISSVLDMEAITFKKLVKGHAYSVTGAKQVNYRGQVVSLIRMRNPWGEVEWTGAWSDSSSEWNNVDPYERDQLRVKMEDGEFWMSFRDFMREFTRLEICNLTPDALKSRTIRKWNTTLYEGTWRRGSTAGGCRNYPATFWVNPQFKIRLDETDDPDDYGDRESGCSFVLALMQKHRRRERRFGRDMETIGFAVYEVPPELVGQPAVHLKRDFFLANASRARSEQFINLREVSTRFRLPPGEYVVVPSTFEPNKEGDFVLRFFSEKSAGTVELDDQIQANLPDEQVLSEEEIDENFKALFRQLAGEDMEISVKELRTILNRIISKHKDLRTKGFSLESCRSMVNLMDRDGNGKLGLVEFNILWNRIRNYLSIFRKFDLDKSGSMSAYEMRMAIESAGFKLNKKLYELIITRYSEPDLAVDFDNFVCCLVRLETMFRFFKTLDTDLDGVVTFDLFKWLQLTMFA
T3 sequence (P04632 1-268 partner): T1 sequence (P04632 1-268 partner)
Procedure: as §1, §2

SMILES	IC50 (Human Calpain 2/NS1)	IC50 (Human Calpain 9/NS1)	IC50 (Human Calpain 1/NS1)
O=C[C@@H]1Cc2cccc(c2)C=CCCOc2cccc(c2)-c2ncccc2C(=O)N1 [Compound 36, (S)-3-Oxo-12-oxa-4-aza-2(2,3)-pyridina-1,7(1,3)-dibenzenacyclododecaphan-8-ene-5-carbaldehyde]	< 3000 nM	< 3000 nM	< 3000 nM
O=C[C@@H]1CC=CCCOc2cccc(c2)-c2ncccc2C(=O)N1 [Compound 37, (S)-11-Oxo-3-oxa-10-aza-1(2,3)-pyridina-2(1,3)-benzenacycloundecaphan-6-ene-9-carbaldehyde]	< 3000 nM	< 3000 nM	< 3000 nM
O=C[C@@H]1CCCCCOc2cccc(c2)-c2ncccc2C(=O)N1 [Compound 38, (S)-11-Oxo-3-oxa-10-aza-1(2,3)-pyridina-2(1,3)-benzenacycloundecaphane-9-carbaldehyde]	< 3000 nM	< 3000 nM	< 3000 nM
O=C[C@@H]1CC=CCCOc2ccnc(n2)-c2ccccc2C(=O)N1 [Compound 39, (S)-3-Oxo-11-oxa-4-aza-1(2,4)-pyrimidina-2(1,2)-benzenacyclo undecaphan-7-ene-5-carbaldehyde]	< 3000 nM	< 3000 nM	3000 to 10000 nM
O=C[C@@H]1CC=CCCOc2nccc(n2)-c2ccccc2C(=O)N1 [Compound 40, (S)-11-Oxo-3-oxa-10-aza-1(2,3)-pyridina-2(1,3)-benzena-cycloundecaphane-9-carbaldehyde]	< 3000 nM	< 3000 nM	3000 to 10000 nM
O=C[C@@H]1CC=CCCCOCc2ccccc2C(=O)N1 [Compound 41, (S)-11-Oxo-1,3,4,5,8,9,10,11-octahydrobenzo[c][1]oxa[6]azacyclotridecine-9-carbaldehyde]	< 3000 nM	< 3000 nM	> 10000 nM
O=C[C@@H]1CCCCCCOCc2ccccc2C(=O)N1 [Compound 42, (S)-11-Oxo-1,3,4,5,6,7,8,9,10,11-decahydrobenzo[c][1]oxa[6]azacyclotridecine-9-carbaldehyde]	< 3000 nM	< 3000 nM	> 10000 nM
O=C[C@@H]1CCCCOCCOCc2ccccc2C(=O)N1 [Compound 43, (S)-12-Oxo-1,3,4,6,7,8,9,10,11,12-decahydrobenzo[f][1,4]dioxa[9]aza-cyclotetradecine-10-carbaldehyde]	< 3000 nM	< 3000 nM	> 10000 nM
O=C[C@@H]1Cc2ccc(cc2)OC/C=C/COc2cccc(c2)-c2ccn(n2)-c2ncccc2C(=O)N1 [Compound 44, (2^2E,6S,11E)-4-oxo-2^1H-9,14-dioxa-5-aza-3(2,3)-pyridina-2(3,1)-pyrazola-1(1,3),8(1,4)-dibenzenacyclotetradecaphan-11-ene-6-carbaldehyde]	< 3000 nM	< 3000 nM	< 3000 nM
CCNC(=O)C(=O)[C@@H]1Cc2ccc(cc2)OCCCCOc2cccc(c2)-c2ccn(n2)-c2ncccc2C(=O)N1 [Compound 45, N-ethyl-2-oxo-2-((6S,E)-4-oxo-2^1H-9,14-dioxa-5-aza-3(2,3)-pyridina-2(3,1)-pyrazola-1(1,3),8(1,4)-dibenzenacyclotetradecaphane-6-yl)acetamide]	< 3000 nM	< 3000 nM	< 3000 nM
O=C[C@@H]1Cc2ccc(cc2)OCCCCOc2cccc(c2)-c2ccn(n2)-c2ncccc2C(=O)N1 [Compound 46, (6S,E)-4-oxo-2^1H-9,14-dioxa-5-aza-3(2,3)-pyridina-2(3,1)-pyrazola-1(1,3),8(1,4)-dibenzenacyclotetradecaphane-6-carbaldehyde]	< 3000 nM	< 3000 nM	< 3000 nM
CCNC(=O)C(=O)[C@@H]1Cc2ccc(cc2)OCCCCOc2ccc3c(cnn3-c3ncccc3C(=O)N1)c2 [Compound 47, N-ethyl-2-oxo-2-((5S)-3-oxo-1H-8,13-dioxa-4-aza-1(1,5)-indazola-2(2,3)-pyridina-7(1,4)-benzenacyclotridecaphane-5-yl)acetamide]	< 3000 nM	< 3000 nM	< 3000 nM
O=C[C@@H]1C/C=C/CCCCCc2cccnc2C(=O)N1 [Compound 48, (S,E)-15-Oxo-6,7,8,9,12,13,14,15-octahydro-5h-pyrido[2,3-c][1]aza-cyclotridecine-13-carbaldehyde]	3000 to 10000 nM	< 3000 nM	> 10000 nM
O=C[C@@H]1CCCCCCCCc2cccnc2C(=O)N1 [Compound 49, (S)-15-Oxo-6,7,8,9,10,11,12,13,14,15-decahydro-5h-pyrido[2,3-c][1]aza-cyclotridecine-13-carbaldehyde]	3000 to 10000 nM	< 3000 nM	> 10000 nM
O=C[C@@H]1CC=CCCCCCc2ncccc2C(=O)N1 [Compound 50, (S)-5-Oxo-6,7,8,11,12,13,14,15-octahydro-5h-pyrido[3,2-c][1]aza-cyclotridecine-7-carbaldehyde]	3000 to 10000 nM	< 3000 nM	> 10000 nM
CC(C)NC(=O)C(=O)[C@@H]1CCCCOCCOCc2ccccc2C(=O)N1 [Compound 52, (S)—N-isopropyl-2-oxo-2-(12-oxo-1,3,4,6,7,8,9,10,11,12-decahydrobenzo[f][1,4]dioxa[9]azacyclotetradecin-10-yl)acetamide]	> 10000 nM	> 10000 nM	> 10000 nM
CCCCNC(=O)C(=O)[C@@H]1CCCCOCCOCc2ccccc2C(=O)N1 [Compound 53, (S)—N-butyl-2-oxo-2-(12-oxo-1,3,4,6,7,8,9,10,11,12-decahydrobenzo[f][1,4]dioxa[9]azacyclotetradecin-10-yl)acetamide]	> 10000 nM	< 3000 nM	> 10000 nM

— US11292801B2, “Calpain modulators and therapeutic uses thereof” (Blade Therapeutics, Inc., priority 2016, dated 2022)
